Measurements from patent US20040116505A1, “Treatment of tics, tremors and related disorders” (priority 2001, published 2004).

Columns and labels:
[1] = tested on: patients suffering from tics; test: Study in five patients suffering from tics who failed standard drug therapies; type: in vivo, human; settings: five patients non-responsive to standard tic therapies; 250 mg BID or 500 mg BID to 1500 mg BID
Description: Patients received either Low (250 mg BID) or standard doses (500 mg BID to 1500 mg BID) of levetiracetam.

[2] = cited from earlier work
[3] = in vivo; cited from earlier work

CC[C@@H](C(N)=O)N1CCCC1=O [levetiracetam, (S)-2-(2-Oxo-pyrrolidin-1-yl)-butyramide]
reduction of tic symptoms [1]: majority of patients experienced a reduction of tic symptoms
levetiracetam excreted unchanged or as an inactive metabolite ([2]; in vivo): 90%
oral bioavailability ([2]; oral): ~100%
side effects [3]: minimal side effects
